ChEMBL document CHEMBL1781880, “Total synthesis and evaluation of 22-(3-azidobenzoyloxy)methyl epothilone C for photoaffinity labeling of beta-tubulin” (2009)
Calls of active or inactive are those of the source. The rule behind the calls is not given here.

Key:
[1] = Ratio of ED50 for epothilone B to ED50 for compound for human NCI/ADR cells; assay type: functional
MCF7 [2] = test: Cytotoxicity against human MCF7 cells by […] labeling study; assay type: functional; settings: MCF7, light or radiation study, read-out: ED50 (the source's name)
[3] = Cytotoxicity against human NCI/ADR cells by phototoxicity labeling study; assay type: functional; settings: NCI/ADR-RES, light or radiation study, read-out: ED50 (the source's name)
[4] = Ratio of ED50 for epothilone B to ED50 for compound for induction of microtubule assembly by photoaffinity labeling study
[5] = Induction of microtubule assembly by photoaffinity labeling study
MCF7 [6] = test: Ratio of ED50 for epothilone B to ED50 for compound for human MCF7 cells; assay type: functional
[7] = Induction of microtubule assembly by photoaffinity labeling study in presence of epothilone B

SMILES | Ratio ED50 [1] | EC50 (MCF7 [2]) | EC50 [3] | Ratio ED50 [4] | ED50 [5] | Ratio ED50 (MCF7 [6]) | Activity [7]
C/C(=C\c1csc(C)n1)[C@@H]1C/C=C\CCC[C@H](C)[C@H](O)[C@@H](C)C(=O)[C@](C)(CCOC(=O)c2cccc(N=[N+]=[N-])c2)[C@@H](O)CC(=O)O1 | 833 | 1200 nM | 1000 nM | 5.1 | 5100 nM | 632 | inactive
C/C(=C\c1csc(C)n1)[C@@H]1C[C@@H]2O[C@]2(C)CCC[C@H](C)[C@H](O)[C@@H](C)C(=O)C(C)(C)[C@@H](O)CC(=O)O1 [PATUPILONE] |  | 1.5 nM | 1.2 nM |  | 1000 nM |  | 
